Among the test systems are DMS 273 small cell lung; SW-620 colon; HCT-15 colon; SNB-19 CNS; NCI-H460 lung; LXFL 529 NSCLC; OVCAR-3 ovarian; OVCAR-5 ovarian; NCI-H226 lung; T-47D breast.
Holding throughout (experiment): NCI-60 cell line screen, 48 h

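Compound exposure: 48 hours, 5 concentrations, 96-well plates. Here, GI50 denotes the concentration required for 50% inhibition of growth. Definition used: TGI = concentration required for complete inhibition of growth.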 Bounds are passed on as bounds.

As to `C1=Nc2ccccc2C=Nc2ccccc2C=Nc2ccccc2C=Nc2ccccc21.[Cl-].[Pt+2]`, the GI50 in the test on DMS 273 small cell lung is 19 µM; in the test on SW-620 colon, 27.6 µM; in the test with HCT-15 colon, 22.3 µM; in the test with SNB-19 CNS, 42.8 µM; in the test on NCI-H460 lung, 25.7 µM; in the test on LXFL 529 NSCLC it was 10.3 µM. Moreover, the TGI was 55.5 µM in the test with DMS 273 small cell lung; greater than 100 µM in the test with SW-620 colon; 83.1 µM in the test with HCT-15 colon; greater than 100 µM in the test with SNB-19 CNS; greater than 100 µM with NCI-H460 lung; 60 µM with LXFL 529 NSCLC.

With `N#CC1C2CCC3(CC2CCN1C(=O)c1ccccc1)OCCO3` (stereo not drawn), the TGI in the test on DMS 273 small cell lung, in the test with SW-620 colon, in the test with HCT-15 colon, in the test on SNB-19 CNS, in the test on OVCAR-3 ovarian and with NCI-H460 lung was greater than 100 µM throughout. Moreover, the TGI in the test with LXFL 529 NSCLC and in the test with OVCAR-5 ovarian was greater than 100 µM in each case.

On to `O=C(NCc1ccncc1)C1COc2cc(-c3cc(=O)c4ccccc4o3)ccc2O1` (stereo not drawn), for which the TGI in the test with SW-620 colon, in the test on HCT-15 colon, in the test on OVCAR-3 ovarian, in the test with NCI-H460 lung, in the test on LXFL 529 NSCLC and in the test on OVCAR-5 ovarian was greater than 100 µM in each case.

`CC/C=C/c1cc2cc[nH]c2c2c1C(C)C[C@@H]2C` (stereo partly drawn): the TGI in the test on SW-620 colon was determined as 94.8 µM; with HCT-15 colon it was 82.5 µM; in the test with OVCAR-3 ovarian it was 40.5 µM; in the test with NCI-H460 lung, 65.3 µM; in the test with LXFL 529 NSCLC, 41.9 µM; in the test with NCI-H226 lung, 39 µM.

Consider `S=c1nc(N2CCCCC2)ss1`, for which the TGI stood at 42.3 µM in the test with DMS 273 small cell lung; 72.4 µM in the test on SW-620 colon; 62.6 µM with HCT-15 colon; 84.9 µM with SNB-19 CNS; 80.5 µM with NCI-H460 lung; 54.2 µM in the test with LXFL 529 NSCLC. The TGI in the test on OVCAR-5 ovarian and with NCI-H226 lung was greater than 100 µM each time.

Regarding `CSc1ncnc2c1CCN2`, the GI50 with SW-620 colon, in the test on SNB-19 CNS and with OVCAR-3 ovarian was greater than 100 µM each time. Moreover, the TGI in the test with SW-620 colon, in the test on HCT-15 colon, in the test on SNB-19 CNS and with LXFL 529 NSCLC was greater than 100 µM throughout.

Take `COc1ccc2c(c1)/C(=C/c1cc(OC)c(OC)c(OC)c1)C(=O)N2C`: the GI50 was 1.59 µM in the test with SW-620 colon; 2.12 µM in the test on HCT-15 colon; 3.19 µM with SNB-19 CNS; 2.03 µM in the test with OVCAR-3 ovarian; 2.59 µM with T-47D breast; 2.46 µM with NCI-H460 lung. Besides, the GI50 in the test on OVCAR-5 ovarian is 5.49 µM; with NCI-H226 lung, 4.85 µM. In addition, the TGI with SW-620 colon is 8.66 µM; with HCT-15 colon it was greater than 35.6 µM; in the test on SNB-19 CNS, greater than 27.7 µM; with OVCAR-3 ovarian, 5.95 µM; with T-47D breast it was 6.45 µM; with NCI-H460 lung it was 7.02 µM. In addition, the TGI with OVCAR-5 ovarian and with NCI-H226 lung was greater than 100 µM each time.

For the molecule `COc1cc(OC)c(C(=O)/C=C/c2cccc(OC(C)=O)c2)cc1CC=C(C)C`, the GI50 in the test with SW-620 colon is 7.02 µM; in the test on HCT-15 colon it was 5.74 µM; in the test on SNB-19 CNS, 9.2 µM; in the test on OVCAR-3 ovarian, 3.44 µM; in the test on T-47D breast it was 4.15 µM; in the test on NCI-H460 lung, 6.57 µM. Besides, the GI50 in the test on OVCAR-5 ovarian was 11.9 µM; with NCI-H226 lung, 12.8 µM. For the same molecule, the TGI with SW-620 colon was 18.5 µM; in the test with HCT-15 colon it was 14.4 µM; with SNB-19 CNS, 17.2 µM; in the test on OVCAR-3 ovarian, 12.6 µM; with T-47D breast, 16.7 µM; in the test with NCI-H460 lung, 17.8 µM. Also, the values for the TGI in the test on OVCAR-5 ovarian and in the test on NCI-H226 lung were 22.5 µM and 40.7 µM, respectively.

In the case of `Cc1cc(=O)oc2cc(OS(C)(=O)=O)ccc12`, the TGI with SW-620 colon, in the test on HCT-15 colon, in the test on SNB-19 CNS, with OVCAR-3 ovarian, in the test with T-47D breast and in the test on NCI-H460 lung was greater than 100 µM throughout. For the same molecule, the TGI with OVCAR-5 ovarian and in the test on NCI-H226 lung was greater than 100 µM in each case.

For the molecule `COc1ccc2c(c1)C1(C(=O)N2)C(C#N)=C(c2ccccc2)Nc2c1c(-c1ccccc1)nn2-c1ccccc1` (stereo not drawn), the GI50 in the test with SW-620 colon was 1.98 µM; in the test with HCT-15 colon it was 11 µM; in the test with SNB-19 CNS, 3.95 µM; in the test with OVCAR-3 ovarian, 1.95 µM; in the test on T-47D breast it was 2.94 µM; in the test with NCI-H460 lung it was 1.98 µM. The GI50 in the test on OVCAR-5 ovarian was 5.46 µM; in the test with NCI-H226 lung, 3.8 µM. In addition, the TGI in the test with SW-620 colon is 4.23 µM; in the test with HCT-15 colon it was 26.8 µM; in the test with SNB-19 CNS, 15 µM; with OVCAR-3 ovarian, 3.39 µM; with T-47D breast it was 12.5 µM; in the test on NCI-H460 lung it was 3.75 µM. Further, the figures for the TGI in the test on OVCAR-5 ovarian and in the test on NCI-H226 lung were 19.8 µM and 16.4 µM, respectively.
